{"source": "ChEMBL document CHEMBL2074171", "about": "“Studies on intestinal absorption of sulpiride (1): carrier-mediated uptake of sulpiride in the human intestinal cell line Caco-2” (Biol Pharm Bull, 2002)", "key": {"[1]": {"molecular_target": "T1, Solute carrier family 15 member 1 (Homo sapiens) (UniProt P46059)", "T1 sequence (whole entry)": "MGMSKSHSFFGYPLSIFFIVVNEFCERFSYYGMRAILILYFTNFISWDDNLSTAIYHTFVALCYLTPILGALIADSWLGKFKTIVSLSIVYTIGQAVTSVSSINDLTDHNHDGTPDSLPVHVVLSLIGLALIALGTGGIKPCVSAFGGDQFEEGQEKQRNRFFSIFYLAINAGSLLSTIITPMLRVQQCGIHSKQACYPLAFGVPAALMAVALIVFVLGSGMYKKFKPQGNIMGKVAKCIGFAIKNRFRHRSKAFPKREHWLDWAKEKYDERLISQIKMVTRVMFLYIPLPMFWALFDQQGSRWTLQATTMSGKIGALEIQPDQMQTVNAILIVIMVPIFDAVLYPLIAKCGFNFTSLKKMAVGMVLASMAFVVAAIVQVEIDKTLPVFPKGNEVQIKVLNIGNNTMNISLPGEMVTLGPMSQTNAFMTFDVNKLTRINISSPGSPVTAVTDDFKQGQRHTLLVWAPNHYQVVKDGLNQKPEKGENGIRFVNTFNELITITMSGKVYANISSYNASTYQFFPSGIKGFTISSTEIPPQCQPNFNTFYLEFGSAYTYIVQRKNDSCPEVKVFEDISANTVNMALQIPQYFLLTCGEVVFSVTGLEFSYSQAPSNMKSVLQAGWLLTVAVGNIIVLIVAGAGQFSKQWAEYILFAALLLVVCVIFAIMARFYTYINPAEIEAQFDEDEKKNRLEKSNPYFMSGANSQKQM", "experiment": "TP_TRANSPORTER: inhibition of Sulpiride uptake (Surpiride: 100 uM, Gly-Sar: 1000 uM) in Caco-2 cells", "type": "functional, cell-based", "design": "scale not given: the % may be the effect or the level left"}, "[2]": {"molecular_target": "T1, Solute carrier family 15 member 1 (Homo sapiens)", "experiment": "TP_TRANSPORTER: trans-stimulation of Sulpiride uptake (Surpiride: 100 uM, Gly-Sar: 1000 uM) in Caco-2 cells", "type": "functional, cell-based"}}, "note": "Peptide text beside a SMILES is read from it."}
{"smiles": "CN(CC(=O)O)C(=O)CN", "note": "(HELM PEPTIDE1{G.[Sar]}$$$$V2.0)", "values": [{"measurement": "Activity", "setting": "[1]", "result": 65, "unit": "%"}, {"measurement": "Activity", "setting": "[2]", "result": 135, "unit": "%"}]}
